ChEMBL document CHEMBL4715916, “Synthesis and biological evaluation of a ring analogs of the selective CB2 inverse agonist SMM-189” (Bioorg Med Chem, 2021)
Calls of active or inactive are those of the source. The rule behind the calls is not given here.

Experiments:
[1] = target: T1, Cannabinoid receptor 1 (Homo sapiens, UniProt P21554); assay: Displacement of [3H]-CP55940 from human recombinant cannabinoid CB1 receptor expressed in HEK cell membranes incubated for 1.5 hrs by liquid scintillation counting method; set-up: species or system Cell membrane
[2] = target: T2, Cannabinoid receptor 2 (Homo sapiens, UniProt P34972); assay: Displacement of [3H]-CP55940 from human recombinant cannabinoid CB2 receptor expressed in HEK cell membranes incubated for 1.5 hrs by liquid scintillation counting method; set-up: species or system Cell membrane
[3] = species on record: Homo sapiens; assay: Selectivity ratio of Ki for displacement of [3H]-CP55940 from human recombinant cannabinoid CB1 receptor expressed in HEK cell membranes to displacement of [3H]-CP55940 from human recombinant cannabinoid CB2 receptor expressed in HEK cell membranes
[4] = target: T1, Cannabinoid receptor 1; assay: Inverse agonist activity at human recombinant cannabinoid CB1 receptor expressed in HEK cells transfected with CNG assessed as increase in cAMP level measured up to 1 hr by ACTOne membrane potential dye based assay; format: functional, cell-based; conditions: time hrs <=1
[5] = target: T1, Cannabinoid receptor 1; assay: Inverse agonist activity at human recombinant cannabinoid CB1 receptor expressed in HEK cells transfected with CNG assessed as increase in cAMP level measured up to 1 hr by ACTOne membrane potential dye based assay relative to control; format: functional, cell-based; conditions: time hrs <=1
[6] = target: T2, Cannabinoid receptor 2; assay: Inverse agonist activity at human recombinant cannabinoid CB2 receptor expressed in HEK cells transfected with CNG assessed as increase in cAMP level measured up to 1 hr by ACTOne membrane potential dye based assay; format: functional, cell-based
[7] = target: T2, Cannabinoid receptor 2; assay: Inverse agonist activity at human recombinant cannabinoid CB2 receptor expressed in HEK cells transfected with CNG assessed as increase in cAMP level measured up to 1 hr by ACTOne membrane potential dye based assay relative to control; format: functional, cell-based; conditions: time hrs <=1
[8] = target: T1, Cannabinoid receptor 1; assay: Inverse agonist activity at cannabinoid CB1 receptor in human U2OS cells assessed as induction of beta-arrestin recruitment using CCF4/AM as substrate preincubated for 5 hrs followed by substrate addition and measured after 2 hrs by Tango assay; format: cell-based; conditions: time 7.0 hrs
[9] = target: T1, Cannabinoid receptor 1; assay: Inverse agonist activity at cannabinoid CB1 receptor in human U2OS cells assessed as emission ratio using CCF4/AM as substrate preincubated for 5 hrs followed by substrate addition and measured after 2 hrs by Tango assay; format: cell-based; conditions: time 7.0 hrs
[10] = target: T2, Cannabinoid receptor 2; assay: Inverse agonist activity at cannabinoid CB2 receptor in human U2OS cells assessed as induction of beta-arrestin recruitment using CCF4/AM as substrate preincubated for 5 hrs followed by substrate addition and measured after 2 hrs by Tango assay; format: cell-based
[11] = target: T2, Cannabinoid receptor 2; assay: Inverse agonist activity at cannabinoid CB2 receptor in human U2OS cells assessed as emission ratio using CCF4/AM as substrate preincubated for 5 hrs followed by substrate addition and measured after 2 hrs by Tango assay; format: cell-based; conditions: time 7.0 hrs
[12] = test system: C8-B4; assay: Effect on LPS-stimulated microglia polarization in mouse C8-B4 cells assessed as decrease in CD16/32 expression at 20 uM after 24 hrs by cell polarization assay; format: functional, cell-based
[13] = test system: C8-B4; assay: Effect on LPS-stimulated microglia polarization in mouse C8-B4 cells assessed as decrease in CD68 expression at 20 uM after 24 hrs by cell polarization assay; format: functional, cell-based
[14] = test system: C8-B4; assay: Effect on LPS-stimulated microglia polarization in mouse C8-B4 cells assessed as increase in CD204 expression at 20 uM after 24 hrs by cell polarization assay; format: functional, cell-based
[15] = test system: C8-B4; assay: Effect on LPS-stimulated microglia polarization in mouse C8-B4 cells assessed as increase in CD206 expression at 20 uM after 24 hrs by cell polarization assay; format: functional, cell-based
[16] = test system: IMhu; assay: Effect on LPS-stimulated microglia polarization in human IMhu cells assessed as decrease in CD16 expression at 35 uM after 24 hrs by cell polarization assay; format: functional, cell-based
[17] = test system: IMhu; assay: Effect on LPS-stimulated microglia polarization in human IMhu cells assessed as decrease in CD68 expression at 35 uM after 24 hrs by cell polarization assay; format: functional, cell-based
[18] = test system: IMhu; assay: Effect on LPS-stimulated microglia polarization in human IMhu cells assessed as increase in CD204 expression at 35 uM after 24 hrs by cell polarization assay; format: functional, cell-based
[19] = test system: IMhu; assay: Effect on LPS-stimulated microglia polarization in human IMhu cells assessed as increase in CD206 expression at 35 uM after 24 hrs by cell polarization assay; format: functional, cell-based
[20] = test system: IMhu; assay: Inhibition of cell migration in LPS-induced human IMhu cells at 10 uM after 24 hrs by scratch assay; format: functional
[21] = test system: IMhu; assay: Induction of morphological changes in LPS-induced human IMhu cells assessed as ramified cell at 10 uM after 24 hrs by DAPI/Phalloidin staining based fluorescence microscopic analysis; format: functional
[22] = test system: IMhu; assay: Induction of morphological changes in LPS-induced human IMhu cells assessed as small cell body at 10 uM after 24 hrs by DAPI/Phalloidin staining based fluorescence microscopic analysis; format: functional
[23] = test system: IMhu; assay: Induction of morphological changes in LPS-induced human IMhu cells assessed as elongated projection formation at 10 uM after 24 hrs by DAPI/Phalloidin staining based fluorescence microscopic analysis; format: functional
[24] = test system: IMhu; assay: Cytoprotective activity in human IMhu cells assessed as reduction in LPS-induced ROS generation at 10 uM after 50 to 1440 mins by fluorescence based assay; format: functional, cell-based; conditions: time 50-1440 min

T1 sequence (P21554 whole entry): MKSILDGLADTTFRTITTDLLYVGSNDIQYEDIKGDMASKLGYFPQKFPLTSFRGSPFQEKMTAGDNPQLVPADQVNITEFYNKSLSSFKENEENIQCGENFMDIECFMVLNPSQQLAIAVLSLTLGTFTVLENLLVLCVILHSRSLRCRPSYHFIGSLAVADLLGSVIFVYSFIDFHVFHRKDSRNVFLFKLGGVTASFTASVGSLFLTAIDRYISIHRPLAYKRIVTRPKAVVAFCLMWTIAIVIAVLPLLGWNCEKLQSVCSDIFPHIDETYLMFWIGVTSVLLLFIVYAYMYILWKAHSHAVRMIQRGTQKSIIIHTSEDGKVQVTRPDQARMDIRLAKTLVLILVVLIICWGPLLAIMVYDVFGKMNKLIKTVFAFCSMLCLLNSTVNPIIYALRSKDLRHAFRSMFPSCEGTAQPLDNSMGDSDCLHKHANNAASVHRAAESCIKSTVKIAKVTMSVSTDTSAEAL
T2 sequence (P34972 whole entry): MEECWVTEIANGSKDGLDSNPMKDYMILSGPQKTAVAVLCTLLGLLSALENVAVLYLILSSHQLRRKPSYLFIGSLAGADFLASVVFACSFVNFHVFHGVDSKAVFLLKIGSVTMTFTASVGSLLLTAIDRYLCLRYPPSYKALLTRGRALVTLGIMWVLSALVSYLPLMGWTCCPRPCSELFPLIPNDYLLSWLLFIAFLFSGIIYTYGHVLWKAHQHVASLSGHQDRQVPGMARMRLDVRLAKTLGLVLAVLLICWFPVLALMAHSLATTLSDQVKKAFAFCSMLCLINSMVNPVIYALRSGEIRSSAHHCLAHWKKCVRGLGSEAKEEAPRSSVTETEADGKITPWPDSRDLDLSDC

Row | SMILES | Ki [1] [nM] | Ki [2] [nM] | Ratio Ki [3] | pEC50 [4] | Emax [5] | EC50 [6] [nM] | Emax ([7]; filed as inverse agonist) [%] | pEC50 [8] | Ratio [9] | EC50 [10] [nM] | Ratio ([11]; filed as inverse agonist) | Emax [7] | pEC50 ([6]; time hrs <=1) | further results
1 | Cc1cccc(-c2c(O)cc(C(=O)c3cccs3)cc2O)c1 | 9530 | 975 | 9.77 | inactive | inactive | 200 | 51.7 | inactive | inactive | 6170 | 2.68 |  |  | 
2 | O=C(c1ccccc1)c1cc(O)c(-c2ccoc2)c(O)c1 | > 10000 | 1330 | > 7.53 | inactive | inactive | 2750 |  |  |  |  |  | -18.5% |  | 
3 | Cc1ccc(Cn2nc(C(=O)N[C@@H]3C(C)(C)[C@@H]4CC[C@@]3(C)C4)cc2-c2ccc(Cl)c(C)c2)cc1 |  |  |  |  |  |  |  | inactive |  |  |  |  |  | 
4 | O=C(c1cc(O)c(-c2cc(C(F)(F)F)cc(C(F)(F)F)c2)c(O)c1)c1cccs1 | 3740 | 187 | 20 | inactive | inactive | 676 | 49.7 | inactive | inactive | 1290 | 0.94 |  |  | 
5 | O=C(c1ccccc1)c1cc(O)c(-c2ccc3c(c2)OCO3)c(O)c1 | > 10000 | > 10000 |  | inactive | inactive |  |  |  |  |  |  | inactive |  | Emax ([6]; time hrs <=1): inactive
6 | O=C(c1cc(O)c(-c2cccc(CO)c2)c(O)c1)c1cccs1 | > 10000 | 8380 | > 1.19 | inactive | inactive |  |  |  |  |  |  | inactive | inactive | 
7 | O=C(c1ccccc1)c1cc(O)c(-c2ccc3c(c2)OCCO3)c(O)c1 | > 10000 | 4740 | > 2.11 | inactive | inactive | 4900 | 49 |  |  |  |  |  |  | 
8 | O=C(c1ccccc1)c1cc(O)c(-c2ccnc(Cl)c2)c(O)c1 | > 10000 | > 10000 |  | inactive | inactive |  |  |  |  |  |  | inactive | inactive | 
9 | O=C(c1ccccc1)c1cc(O)c(-c2cccc(C(F)(F)F)c2)c(O)c1 | > 10000 | 204 | > 49 | inactive | inactive | 240 | 66 | inactive | inactive | 3470 | 1.41 |  |  | 
10 | O=C(c1ccccc1)c1cc(O)c(-c2cc(Cl)ccc2Cl)c(O)c1 | > 10000 | 233 | > 42.9 | inactive | inactive | 363 | 66.5 | inactive | inactive | 6030 | 1.03 |  |  | 
11 | O=C(c1ccccc1)c1cc(O)c(-c2ccnc(F)c2)c(O)c1 | > 10000 | > 10000 |  | inactive | inactive |  |  |  |  |  |  | inactive | inactive | 
12 | O=C(c1ccccc1)c1cc(O)c(-c2cccc(CO)c2)c(O)c1 | > 10000 | 2490 | > 4 | inactive | inactive |  |  |  |  |  |  | inactive | inactive | 
13 | O=C(c1cc(O)c(-c2cc(Cl)ccc2Cl)c(O)c1)c1cccs1 | > 10000 | 447 | > 22.4 | inactive | inactive | 141 | 61 | inactive | inactive | > 10000 | 1.46 |  |  | 
14 | O=C(c1cc(O)c(-c2cccc(C(F)(F)F)c2)c(O)c1)c1cccs1 | > 10000 | 154 | > 64.9 | inactive | inactive | 38.9 | 57.2 | inactive | inactive | 8510 | 1.19 |  |  | Activity [12]: Active; Activity [13]: Active; Activity [14]: Active; Activity [15]: Active; Activity [16]: Active; Activity [17]: Active; Activity [18]: Active; Activity [19]: Active; inhibition [20]: Active; Activity [21]: Active; Activity [22]: Active; Activity [23]: Active; Activity [24]: Active
15 | N#Cc1cc(-c2c(O)cc(C(=O)c3ccccc3)cc2O)ccc1F | > 10000 | 1840 | > 5.44 | inactive | inactive | 2820 | 52.3 | inactive | inactive |  |  |  |  | pEC50 ([10]; time 7.0 hrs): inactive; Ratio [11]: inactive
16 | O=C(c1cc(O)c(-c2ccncc2)c(O)c1)c1cccs1 | > 10000 | > 10000 |  | inactive | inactive |  |  |  |  |  |  | inactive | inactive | 
17 | O=C(c1ccccc1)c1cc(O)c(-c2cc(Cl)cc(Cl)c2)c(O)c1 |  |  | 39.4 | inactive | inactive |  | 54.8 | inactive | inactive |  | 0.66 |  |  | 
18 | O=C(c1ccccc1)c1cc(O)c(-c2ccncc2)c(O)c1 | > 10000 | > 10000 |  | inactive | inactive |  |  |  |  |  |  | inactive | inactive | 
19 | O=C(c1ccccc1)c1cc(O)c(-c2cc(C(F)(F)F)cc(C(F)(F)F)c2)c(O)c1 | 1900 | 215 | 8.86 | inactive | inactive | 372 |  | inactive | inactive | 1410 | 0.91 | 22.9% |  | 
20 | Cc1cccc(-c2c(O)cc(C(=O)c3ccccc3)cc2O)c1 | 4010 | 320 | 12.6 | inactive | inactive | 1660 | 40.3 | inactive | inactive | > 10000 | 2.3 |  |  | 
21 | O=C(c1ccccc1)c1cc(O)c(-c2cc(F)cc(F)c2)c(O)c1 | 1080 | 1630 | 0.66 | inactive | inactive | 1700 | 63 | inactive | inactive | 8910 | 2.22 |  |  | 
22 | O=C(c1ccccc1)c1cc(O)c(-c2ccsc2)c(O)c1 | > 10000 | > 10000 |  | inactive | inactive |  |  |  |  |  |  | inactive | inactive | 
